The nature of data set [1]: Cytotoxicity against human MRC5 SV2 cells after 72 hrs by resazurin dye reduction assay. It is filed as cell-based. (The colour change of resazurin is a common sign of viable cells or microbes.)
The test system of a further data set is Plasmodium falciparum. As to the kind of experiment: Antimalarial activity against chloroquine and pyrimethamine-resistant Plasmodium falciparum K1 infected in human erythrocytes after 72 hrs by spectrophotometry based Malstat method. Type of data set: functional, organism-based. The note with it: K1, 72 h.

A value given as a limit tells only on which side of the number the result lay.

As to `C/C=C(/C)C(=O)O[C@H]1C[C@@H]2C[C@@H](OC(=O)/C=C(\C)C(=O)OC)C[C@@H]1N2C`, the cytotoxic concentration (CC50) – broadly, the concentration at which the toxic effect on the cells reaches its halfway point – at 72 h in data set [1] was more than 64 µM. Further, the IC50 – broadly, the midpoint of a concentration-inhibition curve – in the data set on Plasmodium falciparum turned out to be 24.8 µM.
In the data set on Plasmodium falciparum, `CCN(CC)Cc1cc(Nc2ccnc3cc(Cl)ccc23)ccc1O` gave an IC50 of less than 0.25 µM.
In turn, `C=C(CC(=O)O[C@@H]1C[C@H]2C[C@H](OC(=O)C=C(C)C)[C@H](C1)N2C)C(=O)OC` had a CC50 at 72 h in data set [1] of more than 64 µM. The molecule further returned an IC50 in the data set with Plasmodium falciparum of 22.8 µM.
In the data set with Plasmodium falciparum, `COC(=O)/C(C)=C/C(=O)O[C@@H]1C[C@H]2C[C@H](OC(=O)C=C(C)C)[C@H](C1)N2C` displayed an IC50 of 63.5 µM.
The molecule `C/C=C(\C)C(=O)O[C@H]1C[C@@H]2C[C@@H](OC(=O)/C=C(\C)C(=O)OC)C[C@@H]1N2C` returned a CC50 at 72 h in data set [1] of more than 64 µM. Further, the IC50 in the data set with Plasmodium falciparum amounted to 36 µM.
